Reference: EPA's ToxValDB 9.5
Converted amounts (≈) assume the structure as drawn. “And” between values parts separate entries of the source, which are not always exact repeats. Equal values may be shown once.

Tests used:
Daphnia magna = settings: chronic/long-term; duration: 21 days
Oncorhynchus mykiss = settings: for LC50: acute, duration: 96 hours; for NOEC: chronic/long-term
Lepomis macrochirus = settings: acute, duration: 96 hours
Bibionidae = settings: chronic/long-term
Gallus gallus = settings: subchronic
Danio rerio = settings: acute; duration: 96 hours; mortality
Bovidae = settings: subchronic; duration: 11 weeks; oral; diet; morphology
Equus caballus = settings: other; oral; feed; clinical signs
Felidae = settings: acute; oral; diet; Cat; neurology
Raphanus sp. = settings: acute; duration: 19 days; seedling emergence
Oryctolagus sp. = settings: for NOEL: reproduction developmental, reproduction
Sus scrofa = settings: chronic; duration: 14 weeks; oral; diet; M/F; Not specified; no effects
Canidae = settings: for NOEL: capsule
Rattus norvegicus = settings: for LD50: acute
Cyprinodon variegatus = settings: acute, duration: 96 hours
Homo sapiens = settings: clinical; ophthalmoscopic examination
Meleagris sp. = settings: not reported; no effects
Anas platyrhynchos = settings: for LD50: oral
[1] = chronic/long-term; development
Pimephales promelas = settings: chronic/long-term; duration: 33 days; growth
Colinus virginianus = settings: acute; oral; mortality
Metacarcinus magister = settings: chronic/long-term; duration: 200 hours; mortality
Evynnis japonica = settings: acute; duration: 12 hours; mortality
Apis mellifera = settings: acute, duration: 48 hours, mortality
Typhlodromus pyri = test: LR50; higher = less toxic; settings: not reported; mortality

**Q.** Which results are given for `Cc1cc(C2CC2)nc(Nc2ccccc2)n1` [Cyprodinil]?
**A.** NOEC (Daphnia magna): 0.0018 mg/L; LC50 (Oncorhynchus mykiss; mortality): 1.35 µg/mL (≈ 5.99 µM); NOEC (Oncorhynchus mykiss; duration: 21 days): 0.083 mg/L; LC50 (Lepomis macrochirus; mortality): 2.17 µg/mL (≈ 9.63 µM); NOEC (Bibionidae; duration: 27 days): 80 mg/kg; NOEC (Bibionidae; duration: 28 days): 0.24 mg/L

**Q.** Which LEL (Gallus gallus; duration: 5 weeks, oral, diet, M, body weight) does the source give for `CC[C@@H](C(=O)[C@@H](C)[C@@H](O)[C@H](C)[C@@H]1O[C@@H]([C@@H](CC)C(=O)[O-])CC[C@@H]1C)[C@H]1O[C@]2(C=C[C@@H](O)[C@]3(CC[C@@](C)([C@H]4CC[C@](O)(CC)[C@H](C)O4)O3)O2)[C@H](C)C[C@@H]1C.[Na+]` [Salinomycin sodium] here?
**A.** 140 mg/kg-day

**Q.** And the LEL (Gallus gallus; duration: 12 weeks, oral, diet, body weight)?
**A.** 60 mg/kg-day

**Q.** What about the LEL (Gallus gallus; duration: 42 days, organ weight) of the same compound?
**A.** 140 mg/kg-day

**Q.** What about the LEL (Gallus gallus; duration: 56 days, growth) of the same compound?
**A.** 150 mg/kg-day

**Q.** What about the LC50 (Oncorhynchus mykiss; mortality) of the same compound?
**A.** 1.7 µg/mL and 1.14 µg/mL

**Q.** And the LC50 (Danio rerio)?
**A.** 6.98 µg/mL

**Q.** And the LEL (Bovidae)?
**A.** 90 mg/kg-day

**Q.** What about the LEL (Equus caballus) of the same compound?
**A.** ≥ 0.12 mg/kg

**Q.** What about the NOEC (Bibionidae; other) of the same compound?
**A.** 6.6 mg/kg

**Q.** And the LEL (Felidae)?
**A.** ≥ 16 mg/kg-day

**Q.** What about the LC50 (Raphanus sp.) of the same compound?
**A.** 2.6 mg/kg

**Q.** And the NOEL (Oryctolagus sp.; duration: 24 days, oral, diet, F)?
**A.** 0.5 mg/kg-day

**Q.** What about the NOEL (Oryctolagus sp.) of the same compound?
**A.** 0.5 mg/kg-day

**Q.** What about the LEL (Oryctolagus sp.; subchronic, duration: 6 weeks, oral, diet, food consumption) of the same compound?
**A.** ≤ 25 mg/kg-day

**Q.** What about the NOAEL (Sus scrofa) of the same compound?
**A.** ≥ 5 mg/kg-day

**Q.** What about the NOAEL (Canidae; acute, duration: 1 days, oral, gavage, Beagle, clinical signs) of the same compound?
**A.** 0.5 mg/kg-day

**Q.** And the NOAEL (Canidae; chronic, duration: 1 years, oral, diet, Dog Other, neurology)?
**A.** 0.5 mg/kg-day

**Q.** And the NOAEL (Canidae; chronic, duration: 12 months, Dog Other)?
**A.** 0.5 mg/kg-day

**Q.** And the NOEL (Canidae; chronic, duration: 12 months, oral, M/F, Dog Other, neurology)?
**A.** 0.5 mg/kg-day

**Q.** What about the NOEL (Canidae; repeat dose other, oral, Dog Other, clinical signs) of the same compound?
**A.** 0.625 mg/kg-day

**Q.** And the LOEL (Rattus norvegicus; chronic, duration: 2 years, oral, diet, M/F, Wistar, clinical chemistry)?
**A.** 1.5 mg/kg-day

**Q.** What about the NOAEL (Rattus norvegicus; subchronic, duration: 90 days, oral, diet, M/F, Sprague-Dawley, organ weight) of the same compound?
**A.** 0.6 mg/kg-day

**Q.** With `CCOP(=O)(NC(C)C)Oc1ccc(SC)c(C)c1` (stereo not drawn) [Fenamiphos] as the compound, how does the LC50 (Cyprinodon variegatus) read?
**A.** 0.017 µg/mL (≈ 0.056 µM)

**Q.** And the NOEC (Daphnia magna)?
**A.** 0.00012 mg/L

**Q.** And the NOEC (Oncorhynchus mykiss; duration: 91 days)?
**A.** 0.0038 mg/L

**Q.** What about the LC50 (Lepomis macrochirus) of the same compound?
**A.** 0.0093 µg/mL (≈ 0.0307 µM)

**Q.** And the NOEC (Bibionidae; duration: 28 days)?
**A.** 0.00131 mg/L

**Q.** And the NOAEL (Canidae; acute, oral, Dog Other, neurology)?
**A.** 0.25 mg/kg-day

**Q.** What about the NOAEL (Canidae; chronic, duration: 1 years, oral, Dog Other, neurology) of the same compound?
**A.** 0.083 mg/kg-day

**Q.** And the LD50 (Rattus norvegicus; mortality)?
**A.** 6 mg/kg-day

**Q.** For `CC1=C(/C=C/C(C)=C/C=C/C(C)=C/C=C/C=C(C)/C=C/C=C(C)/C=C/C2=C(C)C(=O)CCC2(C)C)C(C)(C)CCC1=O` [Canthaxanthin], which NOAEL (Homo sapiens) is on record?
**A.** 0.25 mg/kg-day

**Q.** Which results are given for `O=[N+]([O-])c1ccc([As](=O)(O)O)cc1` [Nitarsone]?
**A.** LEL (Meleagris sp.): 750 mg/kg; LEL (Canidae; subchronic, duration: 90 days, oral, diet, Dog Other, no effects): 37.5 mg/kg-day; NOEL (Rattus norvegicus; chronic, duration: 2 years, oral, diet, M/F, Long-Evans, histopathology: nonneoplastic): 2 mg/kg-day

**Q.** Which LD50 (Anas platyrhynchos; acute, unspecified) does the source give for `CC(=O)O.CCCCCCCCCCCCN=C(N)N` [Dodecylguanidine acetate] here?
**A.** 857 mg/kg-day

**Q.** What about the NOEL (Bird; reproductive) of the same compound?
**A.** 17 mg/kg-day

**Q.** What about the LC50 (Bird; short-term, oral, feed) of the same compound?
**A.** 208 mg/kg-day

**Q.** And the NOAEL [1]?
**A.** 45 mg/kg-day

**Q.** And the LD50 (Rattus norvegicus)?
**A.** 851 mg/kg-day

**Q.** Which LC50 (Cyprinodon variegatus; mortality) does the source give for `ClC=CCCl` [1,3-Dichloropropene] here?
**A.** 0.87 µg/mL (≈ 7.84 µM)

**Q.** What about the NOEC (Anas platyrhynchos; reproductive) of the same compound?
**A.** 36 mg/kg-day

**Q.** What about the LD50 (Anas platyrhynchos; short-term, feed, mortality) of the same compound?
**A.** 1080 mg/kg-day

**Q.** And the NOEC (Pimephales promelas)?
**A.** 0.0069 mg/L

**Q.** What about the LD50 (Colinus virginianus) of the same compound?
**A.** 92 mg/kg-day

**Q.** And the NOEC (Bibionidae; duration: 28 days, other)?
**A.** 0.369 mg/L

**Q.** And the LD50 (Rattus norvegicus; oral, mortality)?
**A.** 130 mg/kg-day

**Q.** What about the NOAEL (Rattus norvegicus; chronic, duration: 2 years, oral, diet, histopathology: neoplastic) of the same compound?
**A.** 2.5 mg/kg-day

**Q.** For `[Al+3].[Al+3].[O-2].[O-2].[O-2].[O-2].[O-2].[Si+4]` [Aluminum oxide silicate  (Al2O(SiO4))], which NOEC (Oncorhynchus mykiss; duration: 30 days, mortality) is on record?
**A.** 100 mg/L

**Q.** And the LC50 (Metacarcinus magister)?
**A.** 32000 µg/mL

**Q.** And the LC50 (Evynnis japonica)?
**A.** 494 µg/mL

**Q.** And the LD50 (Rattus norvegicus; oral, mortality)?
**A.** > 5000 mg/kg

**Q.** Which LD50 (Apis mellifera; dermal) does the source give for `CC(C)[C@@H](C)[C@@H](O)[C@H](O)[C@@H](C)[C@H]1CC[C@H]2[C@@H]3COC(=O)[C@H]4C[C@H](O)[C@H](O)C[C@]4(C)[C@H]3CC[C@]12C` here?
**A.** > 10 µg/piece

**Q.** And the LD50 (Apis mellifera; oral, unspecified)?
**A.** > 92.2 µg/piece

**Q.** What about the LC50 (Danio rerio) of the same compound?
**A.** > 5 µg/mL

**Q.** What about the LD50 (Rattus norvegicus; oral, mortality) of the same compound?
**A.** > 5000 mg/kg-day

**Q.** What about the NOEL (Rattus norvegicus; reproduction developmental, no effects) of the same compound?
**A.** ≥ 1000 mg/kg-day

**Q.** What about the LR50 (Typhlodromus pyri) of the same compound?
**A.** 0.28 g/ha
